“And” between values parts separate entries of the source, which are not always exact repeats. Identical values can stand only once.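 All cell lines were grown in 96-well plates and treated with compound for 48 hours. At the GI50, growth is halved. TGI: concentration producing complete growth inhibition.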

Among the data in PubChem BioAssay (NCI) are TGI and GI50 values, retold here.

Among the test systems are SK-MEL-2 melanoma; SW-620 colon; SNB-78 CNS; ACHN renal; SNB-75 CNS; HOP-92 NSCLC; DLD-1 colon; M19-MEL melanoma; OVCAR-4 ovarian; OVCAR-5 ovarian.
Holding throughout (experiment): NCI-60 cell line screen, 48 h

As for `COC(=O)c1cccc2cccc(C(=O)Nc3ccc(Cl)cc3)c12`, the TGI with SK-MEL-2 melanoma is greater than 100 µM; with SW-620 colon, greater than 66.8 µM; in the assay with SNB-78 CNS, greater than 100 µM; in the assay with ACHN renal, greater than 100 µM; in the assay with SNB-75 CNS, greater than 100 µM; in the assay on HOP-92 NSCLC it was greater than 100 µM. The TGI is greater than 62.5 µM in the assay on DLD-1 colon, greater than 100 µM with M19-MEL melanoma, greater than 100 µM in the assay with OVCAR-4 ovarian and greater than 100 µM with OVCAR-5 ovarian.
With `CC1=C(c2cc(C(=O)Nc3ccc(Cl)cc3)nc(=S)[nH]2)Sc2ccccc2N1`, the TGI in the assay on SK-MEL-2 melanoma, in the assay with SW-620 colon, in the assay on SNB-78 CNS, in the assay on ACHN renal, with SNB-75 CNS and in the assay on HOP-92 NSCLC was greater than 100 µM in each case. In addition, the TGI in the assay with DLD-1 colon, with M19-MEL melanoma, with OVCAR-4 ovarian and in the assay with OVCAR-5 ovarian was greater than 100 µM in each case.
Turning to `Cc1cccc(C)c1NC(=O)C(=O)CC(=O)c1cccc([N+](=O)[O-])c1`, the TGI with SK-MEL-2 melanoma, with SW-620 colon, in the assay with SNB-78 CNS, in the assay on ACHN renal, with SNB-75 CNS and in the assay on HOP-92 NSCLC was greater than 100 µM throughout. Moreover, the TGI in the assay on DLD-1 colon, in the assay on M19-MEL melanoma, with OVCAR-4 ovarian and in the assay on OVCAR-5 ovarian was greater than 100 µM in each case.
Regarding `COc1cc(C2C(C(=O)Nc3cc(F)c(F)cc3F)=C(C)NC(C)=C2C(=O)Nc2cc(F)c(F)cc2F)ccc1O`, the TGI was 79.1 µM in the assay with SK-MEL-2 melanoma; greater than 100 µM in the assay on SW-620 colon; greater than 100 µM in the assay on SNB-78 CNS; 65.3 µM in the assay with ACHN renal; 25.8 µM with SNB-75 CNS; 18.4 µM with HOP-92 NSCLC. Besides, the TGI was greater than 100 µM with DLD-1 colon, 77.3 µM in the assay with M19-MEL melanoma, greater than 100 µM with OVCAR-4 ovarian and 59.9 µM with OVCAR-5 ovarian.
Regarding `CC(=O)OCCOCNC(=S)N/N=C/c1ccc(Br)s1`, the TGI in the assay on SK-MEL-2 melanoma, in the assay on SW-620 colon, in the assay with SNB-78 CNS, in the assay on ACHN renal, in the assay with SNB-75 CNS and in the assay with HOP-92 NSCLC was greater than 100 µM throughout. Further, the TGI in the assay with DLD-1 colon, with M19-MEL melanoma, in the assay on OVCAR-4 ovarian and with OVCAR-5 ovarian was greater than 100 µM each time.
For `CCOC(=O)/C(=C/c1cccc(C#N)c1)N(CC)CC`, the TGI in the assay with SK-MEL-2 melanoma, in the assay with SW-620 colon, in the assay on SNB-78 CNS, in the assay on ACHN renal, in the assay on SNB-75 CNS and in the assay on HOP-92 NSCLC was greater than 100 µM throughout. In addition, the TGI with DLD-1 colon, with M19-MEL melanoma, in the assay with OVCAR-4 ovarian and in the assay on OVCAR-5 ovarian was greater than 100 µM in each case.
On to `CCOc1ccccc1NC(=O)C(C#N)C1=C(Cl)C(=O)c2ccccc2C1=O` (configuration not stated), for which the TGI with SK-MEL-2 melanoma was 3.05 µM and 3.12 µM; in the assay with SW-620 colon, 3.45 µM and 6.68 µM; in the assay on SNB-78 CNS, 4.42 µM; in the assay with ACHN renal it was 3.26 µM and 3.52 µM; with SNB-75 CNS, 3.94 µM and 3.09 µM; in the assay on HOP-92 NSCLC, 3.65 µM and 3.19 µM. Moreover, the TGI in the assay on DLD-1 colon is 3.31 µM and 4.27 µM; in the assay with M19-MEL melanoma, 0.351 µM and 0.872 µM; with OVCAR-4 ovarian it was 3.42 µM and 3.04 µM; with OVCAR-5 ovarian, 3.57 µM and 3.55 µM. For the same compound, the GI50 was 2.81 µM with SW-620 colon; 2.03 µM with SNB-78 CNS; 1.68 µM with SNB-75 CNS; 1.4 µM in the assay on HOP-92 NSCLC; 2.14 µM with DLD-1 colon; 0.303 µM with M19-MEL melanoma. In addition, the GI50 with OVCAR-4 ovarian is 1.67 µM.
